# Assay results: US11058742B2, “Food composition for suppressing hepatic lipogenesis” (FUJI OIL HOLDINGS INC., priority 2019, dated 2021)
# Assays:
# [1] = tested on: Fasn gene mRNA; experiment: Tertiary screening: Fasn gene expression level with changed amount of peptide; assay type: cell-based, mouse (C57BL/6J); conditions: for effect of suppressing hepatic lipogenesis: conclusion from the results of primary to tertiary screening; for Fasn gene expression level (significantly reduced compared to the blank): final concentration of the sample 10, 30, 100 μg/ml, otherwise as secondary screening
# Experimental: (§1) In the secondary screening, evaluation is performed by measuring the expression level of Fasn gene mRNA using isolated hepatocyte derived from wild-type mouse (C57BL/6J mouse). More specifically, isolated hepatocyte derived from wild-type mouse (C57BL/6J mouse) is plated in 12-well plate in Dulbecco's modified Eagle's medium (DMEM) containing 1% penicillin and streptomycin, and 10% fetal calf serum (FCS) for 8 hours, and then subjected to 16 hours starvation by replacing the medium with Dulbecco's modified Eagle's medium (DMEM) containing 1% penicillin and streptomycin. The medium is recovered and cultured for 24 hours in a medium containing insulin, liver X receptor (LXR) agonist, amino acid mixture, and each peptide (100 μg/ml in the medium at final concentration). In addition, as a group without adding peptide, a sample to which 10% dimethyl sulfoxide (DMSO) is added instead of the peptide is similarly cultured for 24 hours. After removing the medium from each well, mRNA is extracted. The extraction of mRNA is performed with the SV Total RNA Isolation System (Promega, Z3105), reverse transcription from the RNA is performed with the PrimeScript RT reagent kit (Takara, RR0037A), and quantitative PCR is performed with the CFX384 Real-Time System and C1000 Thermal Cycler using the SYBR Select Master Mix kit (Life technologies, 4472908). The methods comply with the instructions for the kit and equipment.
# The amount of peptide to be added is changed (as used herein, the final concentration of the sample is 10, 30, 100 μg/ml, unless otherwise specified), and the expression level of the Fasn gene is evaluated in the same manner as in the secondary screening.
# [2] = tested on: Fasn gene mRNA; experiment: Secondary screening: expression level of Fasn gene mRNA in isolated hepatocyte derived from wild-type mouse; assay type: cell-based, mouse (C57BL/6J); conditions: each peptide 100 μg/ml final concentration, 24 hours, with insulin, LXR agonist, amino acid mixture; vs control (10% DMSO)
# Experimental: as §1
Substance,effect of suppressing hepatic lipogenesis [1],Fasn gene expression level (significantly reduced compared to the blank) [1],Fasn gene expression level (significantly reduced compared to the blank) [2]
Lys-Pro-Ile,an effect of suppressing hepatic lipogenesis was confirmed,significantly suppressed the expression of the Fasn gene,–
Phe-Ile-Arg,an effect of suppressing hepatic lipogenesis was confirmed,significantly suppressed the expression of the Fasn gene,–
Asn-Arg-Val,an effect of suppressing hepatic lipogenesis was confirmed,significantly suppressed the expression of the Fasn gene,–
Pro-Phe-Tyr,an effect of suppressing hepatic lipogenesis was confirmed,significantly suppressed the expression of the Fasn gene,–
Lys-Leu-Gly,an effect of suppressing hepatic lipogenesis was confirmed,significantly suppressed the expression of the Fasn gene,–
Asp-Phe-Phe,an effect of suppressing hepatic lipogenesis was confirmed,significantly suppressed the expression of the Fasn gene,–
Tyr-Tyr,an effect of suppressing hepatic lipogenesis was confirmed,significantly suppressed the expression of the Fasn gene,significantly suppressed the expression of the Fasn gene
Ile-His-Arg,an effect of suppressing hepatic lipogenesis was confirmed,significantly suppressed the expression of the Fasn gene,–
Ser-Ser-Val,an effect of suppressing hepatic lipogenesis was confirmed,significantly suppressed the expression of the Fasn gene,–
Val-Met,an effect of suppressing hepatic lipogenesis was confirmed,significantly suppressed the expression of the Fasn gene,significantly suppressed the expression of the Fasn gene
Tyr-Ser,an effect of suppressing hepatic lipogenesis was confirmed,significantly suppressed the expression of the Fasn gene,significantly suppressed the expression of the Fasn gene
Asp-Val-Phe,an effect of suppressing hepatic lipogenesis was confirmed,significantly suppressed the expression of the Fasn gene,–
Ala-His,–,–,significantly suppressed the expression of the Fasn gene
Ile-Asp-Arg,an effect of suppressing hepatic lipogenesis was confirmed,significantly suppressed the expression of the Fasn gene,–
Ile-Val-Ile,an effect of suppressing hepatic lipogenesis was confirmed,significantly suppressed the expression of the Fasn gene,–
Ser-Gly-Glu,an effect of suppressing hepatic lipogenesis was confirmed,significantly suppressed the expression of the Fasn gene,–
Val-Leu-Gln,an effect of suppressing hepatic lipogenesis was confirmed,significantly suppressed the expression of the Fasn gene,–
Arg-Ala-Val,an effect of suppressing hepatic lipogenesis was confirmed,significantly suppressed the expression of the Fasn gene,–
Ala-Tyr,–,–,significantly suppressed the expression of the Fasn gene

Substance,effect of suppressing hepatic lipogenesis [1],Fasn gene expression level (significantly reduced compared to the blank) [1],Fasn gene expression level (significantly reduced compared to the blank) [2]
Val-Phe-Val,an effect of suppressing hepatic lipogenesis was confirmed,significantly suppressed the expression of the Fasn gene,–
Asn-Gly-Arg,an effect of suppressing hepatic lipogenesis was confirmed,significantly suppressed the expression of the Fasn gene,–
His-Ala-Gln,an effect of suppressing hepatic lipogenesis was confirmed,significantly suppressed the expression of the Fasn gene,–
Tyr-Lys,an effect of suppressing hepatic lipogenesis was confirmed,significantly suppressed the expression of the Fasn gene,significantly suppressed the expression of the Fasn gene
His-Trp,an effect of suppressing hepatic lipogenesis was confirmed,significantly suppressed the expression of the Fasn gene,significantly suppressed the expression of the Fasn gene
Trp-Glu,an effect of suppressing hepatic lipogenesis was confirmed,significantly suppressed the expression of the Fasn gene,significantly suppressed the expression of the Fasn gene
Gln-Glu-Glu,an effect of suppressing hepatic lipogenesis was confirmed,significantly suppressed the expression of the Fasn gene,–
Ala-Gly,an effect of suppressing hepatic lipogenesis was confirmed,significantly suppressed the expression of the Fasn gene,significantly suppressed the expression of the Fasn gene
His-Thr,an effect of suppressing hepatic lipogenesis was confirmed,significantly suppressed the expression of the Fasn gene,significantly suppressed the expression of the Fasn gene
His-Ser,an effect of suppressing hepatic lipogenesis was confirmed,significantly suppressed the expression of the Fasn gene,significantly suppressed the expression of the Fasn gene
Gly-Ser-Leu,an effect of suppressing hepatic lipogenesis was confirmed,significantly suppressed the expression of the Fasn gene,–
Leu-Val-Ile,an effect of suppressing hepatic lipogenesis was confirmed,significantly suppressed the expression of the Fasn gene,–
Arg-Trp-Phe,an effect of suppressing hepatic lipogenesis was confirmed,significantly suppressed the expression of the Fasn gene,–
Ile-Ile-Pro,an effect of suppressing hepatic lipogenesis was confirmed,significantly suppressed the expression of the Fasn gene,–
Val-Ile-Leu,an effect of suppressing hepatic lipogenesis was confirmed,significantly suppressed the expression of the Fasn gene,–
His-Asn,an effect of suppressing hepatic lipogenesis was confirmed,significantly suppressed the expression of the Fasn gene,significantly suppressed the expression of the Fasn gene
Leu-Arg-Asp,an effect of suppressing hepatic lipogenesis was confirmed,significantly suppressed the expression of the Fasn gene,–
Trp-Lys,an effect of suppressing hepatic lipogenesis was confirmed,significantly suppressed the expression of the Fasn gene,significantly suppressed the expression of the Fasn gene
